# Data published in ChEMBL document CHEMBL4396901, “Discovery of Potent and Noncovalent Reversible EGFR Kinase Inhibitors of EGFRL858R/T790M/C797S” (ACS Med Chem Lett, 2019).
# Calls of active or inactive are those of the source. No cut-off for these calls is given here.
# Tests used:
# BaF3 [1] = assay: Cytotoxicity against mouse BAF3 cells incubated for 72 hrs by resazurin dye based assay; assay type: cell-based; settings: BaF3, 72 h
# BaF3 [2] = assay: Antiproliferative activity against mouse BAF3 cells transfected with EGFR L858R/T790M/C797S mutant (unknown origin) incubated for 72 hrs by resazurin dye based assay; assay type: functional, cell-based; settings: BaF3, 72 h
# NCI-H1975 = assay: Antiproliferative activity human NCI-H1975 cells incubated for 72 hrs by SRB assay; assay type: functional, cell-based; settings: NCI-H1975, 72 h
# A-431 = assay: Antiproliferative activity human A431 cells incubated for 72 hrs by SRB assay; assay type: functional, cell-based; settings: A-431, 72 h
# [3] = system: Epidermal growth factor receptor (Homo sapiens), P00533 [L858R,T790M,C797S]; assay: (§1) Inhibition of recombinant human C-terminal His-tagged/N-terminal GST-tagged EGFR (668 to 1210 residues) T790M/L858R/C797S mutant expressed in baculovirus expression system using poly (Glu,Tyr) 4:1 as substrate incubated for 1 hr in presence of ATP by ELISA
# Chain of Epidermal growth factor receptor (Homo sapiens), P00533 [L858R,T790M,C797S] (P00533 whole entry T790M/C797S/L858R, the tested form may be a part): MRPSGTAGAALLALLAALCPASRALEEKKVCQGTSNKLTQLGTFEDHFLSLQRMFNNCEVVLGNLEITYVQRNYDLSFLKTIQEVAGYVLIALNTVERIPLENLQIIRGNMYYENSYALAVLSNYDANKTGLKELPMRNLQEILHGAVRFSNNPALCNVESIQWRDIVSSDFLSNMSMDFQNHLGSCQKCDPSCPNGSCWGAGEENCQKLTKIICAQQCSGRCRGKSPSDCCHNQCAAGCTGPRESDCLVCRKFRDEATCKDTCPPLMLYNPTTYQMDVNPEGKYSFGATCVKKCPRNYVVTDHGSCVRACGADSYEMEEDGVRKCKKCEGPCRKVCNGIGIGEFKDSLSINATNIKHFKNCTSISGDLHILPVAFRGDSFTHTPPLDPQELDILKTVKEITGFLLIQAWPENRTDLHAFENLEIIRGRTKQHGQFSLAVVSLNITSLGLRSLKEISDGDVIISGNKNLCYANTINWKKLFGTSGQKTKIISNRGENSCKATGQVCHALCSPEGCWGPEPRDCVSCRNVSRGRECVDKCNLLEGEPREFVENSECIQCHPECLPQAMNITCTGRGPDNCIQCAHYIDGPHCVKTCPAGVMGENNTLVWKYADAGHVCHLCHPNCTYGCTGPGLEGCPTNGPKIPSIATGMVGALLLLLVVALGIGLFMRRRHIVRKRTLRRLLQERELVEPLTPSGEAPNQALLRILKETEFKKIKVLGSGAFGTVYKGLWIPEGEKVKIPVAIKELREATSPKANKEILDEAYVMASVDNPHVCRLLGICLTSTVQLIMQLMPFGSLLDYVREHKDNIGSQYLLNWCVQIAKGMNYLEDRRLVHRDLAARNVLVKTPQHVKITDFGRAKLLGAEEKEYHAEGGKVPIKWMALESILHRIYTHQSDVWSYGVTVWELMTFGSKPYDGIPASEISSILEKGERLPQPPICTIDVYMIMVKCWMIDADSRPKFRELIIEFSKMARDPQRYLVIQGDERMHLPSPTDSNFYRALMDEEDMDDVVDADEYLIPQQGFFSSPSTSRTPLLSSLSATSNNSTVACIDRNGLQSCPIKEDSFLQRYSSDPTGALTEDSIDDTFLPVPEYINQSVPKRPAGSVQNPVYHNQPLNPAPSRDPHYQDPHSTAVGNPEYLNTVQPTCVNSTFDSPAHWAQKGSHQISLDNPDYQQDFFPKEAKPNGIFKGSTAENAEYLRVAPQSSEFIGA
# [4] = target: Fibroblast growth factor receptor 1 (Homo sapiens) (UniProt P11362); assay: Inhibition of FGFR1 (unknown origin) at 100 nM relative to control
# [5] = target: Tyrosine-protein kinase JAK1 (Homo sapiens) (UniProt P23458); assay: Inhibition of JAK1 (unknown origin) at 100 nM relative to control
# Chain of Tyrosine-protein kinase JAK1 (Homo sapiens) (P23458 whole entry): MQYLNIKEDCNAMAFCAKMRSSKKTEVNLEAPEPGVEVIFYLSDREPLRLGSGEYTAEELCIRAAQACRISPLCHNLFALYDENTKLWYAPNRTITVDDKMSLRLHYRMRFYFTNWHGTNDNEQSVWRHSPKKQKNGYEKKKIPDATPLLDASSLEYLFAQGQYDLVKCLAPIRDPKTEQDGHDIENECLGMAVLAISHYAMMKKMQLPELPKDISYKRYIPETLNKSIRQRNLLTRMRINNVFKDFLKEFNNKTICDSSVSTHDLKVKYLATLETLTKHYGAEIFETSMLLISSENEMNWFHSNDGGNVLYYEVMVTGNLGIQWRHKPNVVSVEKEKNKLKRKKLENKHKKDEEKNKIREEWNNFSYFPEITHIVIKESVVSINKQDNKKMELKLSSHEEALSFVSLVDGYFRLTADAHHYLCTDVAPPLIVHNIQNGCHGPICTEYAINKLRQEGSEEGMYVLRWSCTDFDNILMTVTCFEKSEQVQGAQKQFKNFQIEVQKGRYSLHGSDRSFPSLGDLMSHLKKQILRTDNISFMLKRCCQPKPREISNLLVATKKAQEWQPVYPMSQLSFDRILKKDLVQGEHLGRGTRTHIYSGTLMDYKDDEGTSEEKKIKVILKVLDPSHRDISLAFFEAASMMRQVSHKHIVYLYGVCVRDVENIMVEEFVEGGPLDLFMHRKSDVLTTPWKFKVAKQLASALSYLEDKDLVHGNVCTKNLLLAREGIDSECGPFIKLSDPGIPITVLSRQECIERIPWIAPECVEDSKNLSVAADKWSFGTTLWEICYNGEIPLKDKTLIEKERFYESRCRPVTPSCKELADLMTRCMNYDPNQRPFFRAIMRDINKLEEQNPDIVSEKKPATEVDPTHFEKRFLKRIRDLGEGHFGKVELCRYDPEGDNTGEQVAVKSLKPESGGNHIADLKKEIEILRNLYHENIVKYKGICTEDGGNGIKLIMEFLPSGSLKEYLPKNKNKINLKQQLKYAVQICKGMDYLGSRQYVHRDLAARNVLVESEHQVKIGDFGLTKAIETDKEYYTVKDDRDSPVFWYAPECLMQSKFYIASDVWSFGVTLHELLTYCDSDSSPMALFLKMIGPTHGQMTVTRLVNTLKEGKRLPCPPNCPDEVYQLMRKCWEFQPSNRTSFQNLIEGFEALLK
# [6] = Aqueous solubility of the compound in PBS buffer at pH 6.8 by UV-Vis spectrophotometric method; assay type: physicochemical
# [7] = target: ALK tyrosine kinase receptor (Homo sapiens) (UniProt Q9UM73); assay: Inhibition of ALK (unknown origin) at 100 nM relative to control
# [8] = target: Insulin receptor (Homo sapiens) (UniProt P06213); assay: Inhibition of IR (unknown origin) at 100 nM relative to control
# [9] = target: Focal adhesion kinase 1 (Homo sapiens) (UniProt Q05397); assay: Inhibition of FAK (unknown origin) at 100 nM relative to control
# [10] = target: Cytoplasmic tyrosine-protein kinase BMX (Homo sapiens) (UniProt P51813); assay: Inhibition of BMX (unknown origin) at 100 nM relative to control
# [11] = target: NT-3 growth factor receptor (Homo sapiens) (UniProt Q16288); assay: Inhibition of TrkC (unknown origin) at 100 nM relative to control
# [12] = target: Mast/stem cell growth factor receptor Kit (Homo sapiens) (UniProt P10721); assay: Inhibition of cKIT (unknown origin) at 100 nM relative to control
# [13] = target: Proto-oncogene tyrosine-protein kinase Src (Homo sapiens) (UniProt P12931); assay: Inhibition of Src (unknown origin) at 100 nM relative to control
# [14] = target: Tyrosine-protein kinase JAK3 (Homo sapiens) (UniProt P52333); assay: Inhibition of JAK3 (unknown origin) at 100 nM relative to control
# [15] = target: Epidermal growth factor receptor (Homo sapiens, UniProt P00533, C797S/EX19DEL/T790M); assay: Inhibition of EGFR 19D/T790M/C797S mutant (unknown origin) using poly (Glu,Tyr) 4:1 as substrate incubated for 1 hr in presence of ATP by ELISA
# [16] = target: Tyrosine-protein kinase receptor UFO (Homo sapiens) (UniProt P30530); assay: Inhibition of AXL (unknown origin) at 100 nM relative to control
# [17] = target: Tyrosine-protein kinase Blk (Homo sapiens) (UniProt P51451); assay: Inhibition of BLK (unknown origin) at 100 nM relative to control
# [18] = target: Tyrosine-protein kinase ABL1 (Homo sapiens) (UniProt P00519); assay: Inhibition of Abl (unknown origin) at 100 nM relative to control
# Chain of Tyrosine-protein kinase ABL1 (Homo sapiens) (P00519 whole entry): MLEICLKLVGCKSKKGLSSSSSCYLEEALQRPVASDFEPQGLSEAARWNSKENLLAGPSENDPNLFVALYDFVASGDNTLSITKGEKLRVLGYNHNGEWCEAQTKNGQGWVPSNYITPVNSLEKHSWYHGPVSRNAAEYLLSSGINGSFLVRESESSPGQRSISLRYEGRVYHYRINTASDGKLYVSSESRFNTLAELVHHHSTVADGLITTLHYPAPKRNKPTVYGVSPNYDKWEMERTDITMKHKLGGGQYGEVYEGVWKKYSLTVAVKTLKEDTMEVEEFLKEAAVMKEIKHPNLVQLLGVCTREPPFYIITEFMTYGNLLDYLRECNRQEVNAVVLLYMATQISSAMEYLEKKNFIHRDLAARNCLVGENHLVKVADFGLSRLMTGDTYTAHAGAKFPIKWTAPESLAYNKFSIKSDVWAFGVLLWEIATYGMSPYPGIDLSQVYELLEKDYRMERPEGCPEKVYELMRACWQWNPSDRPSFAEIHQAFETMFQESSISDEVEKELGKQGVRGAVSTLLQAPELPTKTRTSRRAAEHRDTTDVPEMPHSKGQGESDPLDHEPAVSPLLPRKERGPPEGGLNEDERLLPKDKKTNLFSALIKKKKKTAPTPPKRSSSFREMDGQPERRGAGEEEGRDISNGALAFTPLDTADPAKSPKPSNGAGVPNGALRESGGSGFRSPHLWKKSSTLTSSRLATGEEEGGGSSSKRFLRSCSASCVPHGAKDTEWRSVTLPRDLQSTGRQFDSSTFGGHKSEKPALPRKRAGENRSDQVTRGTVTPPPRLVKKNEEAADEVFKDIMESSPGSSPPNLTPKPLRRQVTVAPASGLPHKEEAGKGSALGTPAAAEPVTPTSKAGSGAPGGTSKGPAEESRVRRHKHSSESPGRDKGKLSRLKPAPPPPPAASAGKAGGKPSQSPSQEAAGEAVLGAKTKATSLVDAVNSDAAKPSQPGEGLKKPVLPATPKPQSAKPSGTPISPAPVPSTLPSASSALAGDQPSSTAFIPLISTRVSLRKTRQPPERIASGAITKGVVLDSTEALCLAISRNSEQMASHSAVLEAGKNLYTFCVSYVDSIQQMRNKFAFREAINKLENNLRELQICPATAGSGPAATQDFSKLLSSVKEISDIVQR
# [19] = target: Macrophage colony-stimulating factor 1 receptor (Homo sapiens) (UniProt P07333); assay: Inhibition of CSF1R (unknown origin) at 100 nM relative to control
# [20] = target: Platelet-derived growth factor receptor alpha (Homo sapiens) (UniProt P16234); assay: Inhibition of PDGFRalpha (unknown origin) at 100 nM relative to control
# [21] = system: Epidermal growth factor receptor (Homo sapiens), P00533 [L858R,T790M,C797S]; assay: Inhibition of EGFR L858R/T790M/C797S mutant (unknown origin) transfected in mouse BAF3 cells assessed as inhibition of EGF-induced EGFR phosphorylation at 0.1 uM by Western blot analysis; assay type: cell-based
# [22] = target: Fibroblast growth factor receptor 4 (Homo sapiens) (UniProt P22455); assay: Inhibition of FGFR4 (unknown origin) at 100 nM relative to control
# [23] = target: Receptor-type tyrosine-protein kinase FLT3 (Homo sapiens) (UniProt P36888); assay: Inhibition of FLT3 (unknown origin) at 100 nM relative to control
# BaF3 [24] = assay: Antiproliferative activity against mouse BAF3 cells transfected with EGFR 19D/T790M/C797S mutant (unknown origin) incubated for 72 hrs by resazurin dye based assay; assay type: functional, cell-based; settings: BaF3, 72 h
# [25] = target: Vascular endothelial growth factor receptor 2 (Homo sapiens) (UniProt P35968); assay: Inhibition of VEGFR2 (unknown origin) at 100 nM relative to control
# [26] = target: Fibroblast growth factor receptor 3 (Homo sapiens) (UniProt P22607); assay: Inhibition of FGFR3 (unknown origin) at 100 nM relative to control
# [27] = target: Insulin-like growth factor 1 receptor (Homo sapiens) (UniProt P08069); assay: Inhibition of IGF1R (unknown origin) at 100 nM relative to control
# [28] = target: Ephrin type-B receptor 2 (Homo sapiens) (UniProt P29323); assay: Inhibition of EPHB2 (unknown origin) at 100 nM relative to control
# [29] = target: Receptor tyrosine-protein kinase erbB-4 (Homo sapiens) (UniProt Q15303); assay: Inhibition of ErbB4 (unknown origin) at 100 nM relative to control
# [30] = target: Receptor tyrosine-protein kinase erbB-2 (Homo sapiens) (UniProt P04626); assay: Inhibition of ErbB2 (unknown origin) at 100 nM relative to control
# [31] = target: Tyrosine-protein kinase BTK (Homo sapiens) (UniProt Q06187); assay: Inhibition of BTK (unknown origin) at 100 nM relative to control
# [32] = target: Vascular endothelial growth factor receptor 1 (Homo sapiens) (UniProt P17948); assay: Inhibition of VEGFR1 (unknown origin) at 100 nM relative to control
# Chain of Vascular endothelial growth factor receptor 1 (Homo sapiens) (P17948 whole entry, the tested form may be a part): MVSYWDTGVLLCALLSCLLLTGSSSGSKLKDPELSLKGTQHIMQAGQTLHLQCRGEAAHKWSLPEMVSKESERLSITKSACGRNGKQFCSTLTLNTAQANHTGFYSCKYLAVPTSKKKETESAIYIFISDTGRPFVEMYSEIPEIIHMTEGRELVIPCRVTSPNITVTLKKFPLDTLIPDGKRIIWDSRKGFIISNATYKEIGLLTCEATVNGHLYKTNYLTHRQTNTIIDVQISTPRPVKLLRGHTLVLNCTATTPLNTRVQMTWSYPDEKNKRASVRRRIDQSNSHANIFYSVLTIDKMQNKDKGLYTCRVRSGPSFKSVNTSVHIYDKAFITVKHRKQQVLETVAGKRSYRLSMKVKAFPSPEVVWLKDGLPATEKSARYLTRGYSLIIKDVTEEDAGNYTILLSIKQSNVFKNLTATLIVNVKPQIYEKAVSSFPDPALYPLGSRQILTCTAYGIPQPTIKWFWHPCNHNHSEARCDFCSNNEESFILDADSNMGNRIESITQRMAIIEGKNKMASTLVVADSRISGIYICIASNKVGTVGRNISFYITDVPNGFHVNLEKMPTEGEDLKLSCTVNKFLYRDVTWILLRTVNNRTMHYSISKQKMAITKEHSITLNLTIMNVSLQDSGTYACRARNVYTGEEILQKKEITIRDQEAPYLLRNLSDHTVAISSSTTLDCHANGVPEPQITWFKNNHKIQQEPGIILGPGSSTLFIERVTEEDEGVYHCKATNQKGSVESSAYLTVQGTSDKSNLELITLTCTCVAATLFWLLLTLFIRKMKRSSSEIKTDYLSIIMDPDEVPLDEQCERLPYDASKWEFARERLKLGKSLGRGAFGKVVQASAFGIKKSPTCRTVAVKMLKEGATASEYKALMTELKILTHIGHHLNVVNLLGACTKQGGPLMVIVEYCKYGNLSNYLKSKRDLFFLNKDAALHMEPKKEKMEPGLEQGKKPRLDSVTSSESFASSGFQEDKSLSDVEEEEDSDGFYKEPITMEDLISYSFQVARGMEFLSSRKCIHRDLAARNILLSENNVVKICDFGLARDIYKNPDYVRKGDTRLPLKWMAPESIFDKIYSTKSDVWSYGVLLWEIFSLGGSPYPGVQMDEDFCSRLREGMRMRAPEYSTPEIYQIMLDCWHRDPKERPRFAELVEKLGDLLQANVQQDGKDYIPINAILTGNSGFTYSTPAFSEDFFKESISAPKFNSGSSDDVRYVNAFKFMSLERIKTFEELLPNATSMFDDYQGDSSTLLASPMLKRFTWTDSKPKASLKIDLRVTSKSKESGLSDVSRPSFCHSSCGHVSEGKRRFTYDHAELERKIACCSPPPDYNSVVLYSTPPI
# [33] = system: Epidermal growth factor receptor (Homo sapiens), P00533 [L858R,T790M,C797S]; assay: Inhibition of recombinant human C-terminal His-tagged/N-terminal GST-tagged EGFR (668 to 1210 residues) T790M/L858R/C797S mutant expressed in baculovirus expression system at 100 nM using poly (Glu,Tyr) 4:1 as substrate incubated for 1 hr in presence of ATP by ELISA relative to control
# [34] = target: Inhibitor of NF-kappa-B kinase (IKK) (Homo sapiens) (UniProt O14920+O15111+Q9Y6K9); assay: Inhibition of IKK (unknown origin) at 100 nM relative to control; assay type: protein-complex assay
# [35] = target: Hepatocyte growth factor receptor (Homo sapiens) (UniProt P08581); assay: Inhibition of MET (unknown origin) at 100 nM relative to control
# [36] = target: Epidermal growth factor receptor (Homo sapiens, UniProt P00533, C797S/L858R/T790M); assay: as §1
# [37] = Clearance in rat at 1 mg/kg, iv measured for 0.083 to 24 hrs by LC-MS/MS analysis; assay type: ADME, organism-based; settings: in vivo
# [38] = target: High affinity nerve growth factor receptor (Homo sapiens) (UniProt P04629); assay: Inhibition of TrkA (unknown origin) at 100 nM relative to control
# [39] = target: Tyrosine-protein kinase Yes (Homo sapiens) (UniProt P07947); assay: Inhibition of YES (unknown origin) at 100 nM relative to control
# [40] = target: Platelet-derived growth factor receptor beta (Homo sapiens) (UniProt P09619); assay: Inhibition of PDGFRbeta (unknown origin) at 100 nM relative to control
# [41] = system: Epidermal growth factor receptor (Homo sapiens), P00533 [L858R,T790M,C797S]; assay: Inhibition of EGFR L858R/T790M/C797S mutant (unknown origin) transfected in mouse BAF3 cells assessed as inhibition of EGF-induced EGFR phosphorylation by Western blot analysis; assay type: cell-based
# [42] = target: Fibroblast growth factor receptor 2 (Homo sapiens) (UniProt P21802); assay: Inhibition of FGFR2 (unknown origin) at 100 nM relative to control
# [43] = target: BDNF/NT-3 growth factors receptor (Homo sapiens) (UniProt Q16620); assay: Inhibition of TrkB (unknown origin) at 100 nM relative to control
# [44] = Oral bioavailability in rat at 10 mg/kg measured for 0.083 to 24 hrs by LC-MS/MS analysis; assay type: ADME, organism-based; settings: in vivo
# [45] = target: Ephrin type-A receptor 2 (Homo sapiens) (UniProt P29317); assay: Inhibition of EPHA2 (unknown origin) at 100 nM relative to control
# [46] = target: Vascular endothelial growth factor receptor 3 (Homo sapiens) (UniProt P35916); assay: Inhibition of VEGFR3 (unknown origin) at 100 nM relative to control
# [47] = target: Tyrosine-protein kinase TXK (Homo sapiens) (UniProt P42681); assay: Inhibition of Txk (unknown origin) at 100 nM relative to control
# [48] = target: Proto-oncogene tyrosine-protein kinase receptor Ret (Homo sapiens) (UniProt P07949); assay: Inhibition of RET (unknown origin) at 100 nM relative to control
# [49] = system: Epidermal growth factor receptor (Homo sapiens), P00533 [L858R,T790M]; assay: Inhibition of human EGFR T790M/L858R mutant using poly (Glu,Tyr) 4:1 as substrate incubated for 1 hr in presence of ATP by ELISA
smiles,measurement,setting,value
C=CC(=O)Nc1cc(Nc2nccc(-c3cn(C)c4ccccc34)n2)c(OC)cc1N(C)CCN(C)C [OSIMERTINIB],IC50,BaF3 [1],5110 nM
same,IC50,BaF3 [2],3930 nM
COc1cc2ncnc(Nc3ccc(NC(=O)C(c4ccccc4)N4Cc5ccccc5C4=O)cc3F)c2cc1OCCCN1CCOCC1 (configuration not stated),inhibition,[3],Active
COc1cc2c(Nc3ccc(NC(=O)C(C)c4ccccc4)cc3F)ncnc2cc1OCC1CCN(C)CC1 (configuration not stated),inhibition,[3],inactive
COc1cc2ncnc(Nc3ccc(NC(=O)C(c4ccccc4)N4Cc5ccccc5C4=O)cc3F)c2cc1OCN1CCOCC1 (configuration not stated),inhibition,[3],Active
COc1cc2ncnc(Nc3ccc(NC(=O)C(c4ccccc4)N4Cc5ccccc5C4=O)cc3F)c2cc1OC (configuration not stated),inhibition,[3],Active
COc1cc2c(Nc3ccc(NC(=O)C(c4ccccc4)C(C)C)cc3F)ncnc2cc1OCC1CCN(C)CC1 (configuration not stated),inhibition,[3],inactive
COc1cc2c(Nc3ccc(NC(=O)C(c4cc(F)ccc4F)N4Cc5ccccc5C4=O)cc3F)ncnc2cc1OCC1CCN(C)CC1 (configuration not stated),inhibition,[4],< 25%
same,inhibition,[5],< 25%
same,solubility,[6],Insoluble
same,inhibition,[7],< 25%
same,inhibition,[8],< 25%
same,inhibition,[9],< 25%
same,inhibition,[10],< 25%
same,inhibition,[11],< 25%
same,inhibition,[12],< 25%
same,inhibition,[13],50 to 75%
same,inhibition,[14],< 25%
same,IC50,[15],331 nM
same,IC50,BaF3 [1],7680 nM
same,inhibition,[16],50 to 75%
same,inhibition,[17],> 90%
same,inhibition,[18],50 to 75%
same,inhibition,[19],< 25%
same,inhibition,[20],50 to 75%
same,inhibition,[21],Active
same,inhibition,[22],< 25%
same,inhibition,[23],< 25%
same,IC50,BaF3 [24],3540 nM
same,IC50,BaF3 [2],640 nM
same,IC50,NCI-H1975,3030 nM
same,inhibition,[25],50 to 75%
same,IC50,A-431,1240 nM
same,inhibition,[26],< 25%
same,inhibition,[27],< 25%
same,inhibition,[28],< 25%
same,inhibition,[29],> 90%
same,inhibition,[30],> 90%
same,inhibition,[31],50 to 75%
same,inhibition,[32],< 25%
same,inhibition,[33],> 90%
same,inhibition,[34],< 25%
same,inhibition,[35],< 25%
same,IC50,[36],2.2 nM
same,clearance,[37],16 mL/min/kg
same,inhibition,[38],< 25%
same,inhibition,[39],< 25%
same,inhibition,[40],50 to 75%
same,inhibition,[41],Dose-dependent effect
same,inhibition,[42],< 25%
same,inhibition,[43],< 25%
same,bioavailability,[44],0.55%
same,inhibition,[45],< 25%
same,inhibition,[46],< 25%
same,inhibition,[47],50 to 75%
same,inhibition,[48],< 25%
COc1cc2nc(N)nc(Nc3ccc(NC(=O)C(c4ccccc4)N4Cc5ccccc5C4=O)cc3F)c2cc1OC (configuration not stated),inhibition,[49],inactive
same,inhibition,[3],inactive
COc1cc2c(Nc3cc(NC(=O)c4ccccc4)ccc3F)ncnc2cc1OCC1CCN(C)CC1,inhibition,[3],inactive
COc1cc2c(Nc3ccc(NC(=O)c4ccccc4)cc3F)ncnc2cc1OCC1CCN(C)CC1,inhibition,[3],inactive
